Experimental data: patent US7713966B2, “Heterobicyclic metalloprotease inhibitors” (Alantos Pharmaceuticals Holding, Inc., priority 2006, dated 2010)

Tests used:
Assay type in all cases: biochemical
[1] = target: T1, catalytic domain of MMP-13 enzyme (Homo sapiens, UniProt P45452); experiment: Assay for determining MMP-13 inhibition (fluorescent substrate); settings: read-out: MMP-13 Activity (IC50 MMP-13), Group
T1 construct: catalytic domain of MMP-13 enzyme (produced by Alantos or commercially available from Invitek (Berlin), Cat. # 30100812); purchased Invitek (Berlin) 30100812
Method: The typical assay for MMP-13 activity is carried out in assay buffer comprised of 50 mM Tris, pH 7.5, 150 mM NaCl, 5 mM CaCl2 and 0.05% Brij-35. Different concentrations of tested compounds are prepared in assay buffer in 50 μL aliquots. 10 μL of a 50 nM stock solution of catalytic domain of MMP-13 enzyme (produced by Alantos or commercially available from Invitek (Berlin), Cat. # 30100812) is added to the compound solution. The mixture of enzyme and compound in assay buffer is thoroughly mixed and incubated for 10 min at room temperature. Upon the completion of incubation, the assay is started by addition of 40 μl of a 12.5 μM stock solution of MMP-13 fluorescent substrate (Calbiochem, Cat. No. 444235). The time-dependent increase in fluorescence is measured at the 320 nm excitation and 390 nm emission by automatic plate multireader. The IC50 values are calculated from the initial reaction rates.

[2] = target: T2, catalytic domain of MMP-3 enzyme (Homo sapiens, UniProt P08254); experiment: Assay for determining MMP-3 inhibition (NFF-3 fluorescent substrate); settings: read-out: MMP-3 Activity (IC50 MMP-3), Group
T2 construct: catalytic domain of MMP-3 enzyme (Biomol, Cat. No. SE-109); purchased Biomol SE-109
Method: The typical assay for MMP-3 activity is carried out in assay buffer comprised of 50 mM MES, pH 6.0, 10 mM CaCl2 and 0.05% Brij-35. Different concentrations of tested compounds are prepared in assay buffer in 50 μL aliquots. 10 μL of a 100 nM stock solution of the catalytic domain of MMP-3 enzyme (Biomol, Cat. No. SE-109) is added to the compound solution. The mixture of enzyme and compound in assay buffer is thoroughly mixed and incubated for 10 min at room temperature. Upon the completion of incubation, the assay is started by addition of 40 μL of a 12.5 μM stock solution of NFF-3 fluorescent substrate (Calbiochem, Cat. No. 480455). The time-dependent increase in fluorescence is measured at the 330 nm excitation and 390 nm emission by an automatic plate multireader. The IC50 values are calculated from the initial reaction rates.

activated MMP-8 enzyme = target: T3, activated MMP-8 enzyme (Homo sapiens, UniProt P22894); experiment: Assay for determining MMP-8 inhibition (OmniMMP fluorescent substrate); settings: read-out: MMP-8 Activity (IC50 MMP-8), Group
T3 construct: purchased Calbiochem 444229
Method: The typical assay for MMP-8 activity is carried out in assay buffer comprised of 50 mM Tris, pH 7.5, 150 mM NaCl, 5 mM CaCl2 and 0.05% Brij-35. Different concentrations of tested compounds are prepared in assay buffer in 50 μL aliquots. 10 μL of a 50 nM stock solution of activated MMP-8 enzyme (Calbiochem, Cat. No. 444229) is added to the compound solution. The mixture of enzyme and compound in assay buffer is thoroughly mixed and incubated for 10 min at 37° C. Upon the completion of incubation, the assay is started by addition of 40 μL of a 10 μM stock solution of OmniMMP fluorescent substrate (Biomol, Cat. No. P-126). The time-dependent increase in fluorescence is measured at the 320 nm excitation and 390 nm emission by an automatic plate multireader at 37° C. The IC50 values are calculated from the initial reaction rates.

T2 sequence (P08254 100-272 limits assumed): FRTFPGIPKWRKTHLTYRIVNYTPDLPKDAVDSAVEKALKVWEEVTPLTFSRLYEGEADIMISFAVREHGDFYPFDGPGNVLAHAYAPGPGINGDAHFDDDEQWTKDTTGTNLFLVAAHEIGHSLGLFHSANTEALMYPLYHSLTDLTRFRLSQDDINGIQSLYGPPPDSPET
T3 sequence (P22894 101-467): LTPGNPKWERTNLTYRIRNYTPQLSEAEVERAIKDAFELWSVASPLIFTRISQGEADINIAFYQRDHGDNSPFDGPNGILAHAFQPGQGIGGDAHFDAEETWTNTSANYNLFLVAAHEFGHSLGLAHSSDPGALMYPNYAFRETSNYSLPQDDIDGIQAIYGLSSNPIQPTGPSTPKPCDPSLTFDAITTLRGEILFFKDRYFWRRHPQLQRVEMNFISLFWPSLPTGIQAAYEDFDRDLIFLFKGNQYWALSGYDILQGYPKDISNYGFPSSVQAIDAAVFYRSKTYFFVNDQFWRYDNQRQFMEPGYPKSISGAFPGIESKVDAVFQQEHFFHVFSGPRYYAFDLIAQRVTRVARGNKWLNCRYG

Structure (SMILES) | IC50 [1] | IC50 [2] | IC50 (activated MMP-8 enzyme)
O=C1COc2ccc(CNC(=O)c3nc4scc(C(F)(F)F)c4c(=O)[nH]3)cc2N1 [2/86] | < 100 nM | < 250 nM | 250 to 20000 nM
Cc1csc2nc(C(=O)NCc3ccc4c(c3)CN(c3c(N)c(=O)c3=O)CC4)[nH]c(=O)c12 [2/10] | < 100 nM | < 250 nM | < 250 nM
O=C1COc2ccc(CNC(=O)c3nc4cc(Br)ccc4c(=O)[nH]3)cc2N1 [2/39] | < 100 nM | 250 to 20000 nM | < 250 nM
O=C1COc2ccc(CNC(=O)c3nc4ccc(Cl)cc4c(=O)[nH]3)cc2N1 [2/26] |  | < 250 nM | < 250 nM
Cc1sc2nc(C(=O)NCc3ccc4c(c3)NC(=O)CO4)[nH]c(=O)c2c1-c1ccccc1 [2/105] |  | 250 to 20000 nM | 250 to 20000 nM
Cc1sc2nc(C(=O)NCc3ccc4c(c3)NC(=O)CO4)[nH]c(=O)c2c1C [2/46] | < 100 nM | 250 to 20000 nM | < 250 nM
Nc1c(N2CCc3ccc(CNC(=O)c4nc5scc(-c6ccccc6)c5c(=O)[nH]4)cc3C2)c(=O)c1=O [2/110] | < 100 nM | 250 to 20000 nM | 250 to 20000 nM
O=C1COc2ccc(CNC(=O)c3nc4scc(-c5cccs5)c4c(=O)[nH]3)cc2N1 [2/49] |  | < 250 nM | 250 to 20000 nM
O=C1COc2ccc(CNC(=O)c3nc4c(c(=O)[nH]3)CCCC4)cc2N1 [2/55] | < 100 nM | 250 to 20000 nM | < 250 nM
O=C1COc2ccc(CNC(=O)c3nc4ccsc4c(=O)[nH]3)cc2N1 [2/20] | < 100 nM | 250 to 20000 nM | 250 to 20000 nM
COc1ccc2nc(C(=O)NCc3ccc4c(c3)NC(=O)CO4)[nH]c(=O)c2c1 [2/71] |  | < 250 nM | 
O=C1COc2ccc(CNC(=O)c3nc4ccc(CNC(=O)c5ccccc5)cc4c(=O)[nH]3)cc2N1 [2/93] | < 100 nM | 250 to 20000 nM | < 250 nM
O=C1COc2ccc(CNC(=O)c3nc4cccc(F)c4c(=O)[nH]3)cc2N1 [2/74] | < 100 nM | < 250 nM | < 250 nM
Cc1c(C(=O)Nc2ccccc2)sc2nc(C(=O)NCc3ccc4c(c3)NC(=O)CO4)[nH]c(=O)c12 [2/62] | < 100 nM |  | 250 to 20000 nM
O=C1COc2cc(CNC(=O)c3nc4ccc(Cl)cc4c(=O)[nH]3)ccc2N1 [2/27] | 100 to 20000 nM |  | 250 to 20000 nM
Cc1c(Br)sc2nc(C(=O)NCc3ccc4c(c3)NC(=O)CO4)[nH]c(=O)c12 [2/11] | < 100 nM | 250 to 20000 nM | < 250 nM
Nc1c(N2CCc3ccc(CNC(=O)c4nc5scc(-c6ccco6)c5c(=O)[nH]4)cc3C2)c(=O)c1=O [2/98] | < 100 nM | < 250 nM | 250 to 20000 nM
O=C1COc2ccc(CNC(=O)c3nc4scc(-c5ccccc5Cl)c4c(=O)[nH]3)cc2N1 [2/101] | < 100 nM |  | 250 to 20000 nM
O=C1COc2ccc(CNC(=O)c3nc4ccc(F)cc4c(=O)[nH]3)cc2N1 [2/23] | < 100 nM | < 250 nM | < 250 nM
CC(=O)NCc1ccc2nc(C(=O)NCc3ccc4c(c3)NC(=O)CO4)[nH]c(=O)c2c1 [2/91] |  | < 250 nM | 
Cc1nsc2nc(C(=O)NCc3ccc4c(c3)CN(c3c(N)c(=O)c3=O)CC4)[nH]c(=O)c12 [2/134] | 100 to 20000 nM | < 250 nM | 250 to 20000 nM
O=C1COc2ccc(CNC(=O)c3nc4scc(-c5cccnc5)c4c(=O)[nH]3)cc2N1 [2/115] | < 100 nM |  | 250 to 20000 nM
Nc1c(N2CCc3ccc(CNC(=O)c4nc5scc(-c6cccs6)c5c(=O)[nH]4)cc3C2)c(=O)c1=O [2/51] | < 100 nM | < 250 nM | 250 to 20000 nM
O=C1COc2ccc(CNC(=O)c3nc4cc(C(F)(F)F)ccc4c(=O)[nH]3)cc2N1 [2/43] | 100 to 20000 nM |  | < 250 nM

The remaining lines, values ahead:

IC50 [1] | IC50 [2] | IC50 (activated MMP-8 enzyme) | Structure (SMILES)
< 100 nM | < 250 nM | < 250 nM | N#CCc1csc2nc(C(=O)NCc3ccc4c(c3)NC(=O)CO4)[nH]c(=O)c12 [Example 19]
< 100 nM | < 250 nM | 250 to 20000 nM | O=C1COc2ccc(CNC(=O)c3nc4scc(-c5cnccn5)c4c(=O)[nH]3)cc2N1 [2/185]
 | 250 to 20000 nM | < 250 nM | CNC(=O)C(C)c1csc2nc(C(=O)NCc3ccc4c(c3)NC(=O)CO4)[nH]c(=O)c12 (stereo not shown) [2/183]
< 100 nM | < 250 nM | < 250 nM | N#Cc1ccc2nc(C(=O)NCc3ccc4c(c3)NC(=O)CO4)[nH]c(=O)c2c1 [Example 9]
< 100 nM | < 250 nM | 250 to 20000 nM | O=C1COc2ccc(CNC(=O)c3nc4scc(-c5nccs5)c4c(=O)[nH]3)cc2N1 [2/265]
< 100 nM | 250 to 20000 nM | 250 to 20000 nM | COC(=O)c1cccc2nc(C(=O)NCc3ccc4c(c3)NC(=O)CO4)[nH]c(=O)c12 [Example 36]
< 100 nM | 250 to 20000 nM |  | O=C(Cc1csc2nc(C(=O)NCc3ccc4c(c3)NC(=O)CO4)[nH]c(=O)c12)NCS(=O)(=O)O [2/271]
< 100 nM | < 250 nM | < 250 nM | Cc1c(CC(=O)O)sc2nc(C(=O)NCc3ccc4c(c3)CN(c3c(N)c(=O)c3=O)CC4)[nH]c(=O)c12 [4/13]
< 100 nM | < 250 nM | < 250 nM | O=C1COc2ccc(CNC(=O)c3nc4ccc(Br)cc4c(=O)[nH]3)cc2N1 [Example 2/21]
< 100 nM | 250 to 20000 nM |  | Cc1c(CC(=O)O)sc2nc(C(=O)NCc3ccc4c(c3)NC(=O)CO4)[nH]c(=O)c12 [4/12]
< 100 nM | 250 to 20000 nM | < 250 nM | Cc1sc2nc(C(=O)NCc3ccc4c(c3)NC(=NC#N)CO4)[nH]c(=O)c2c1C [2/221]
100 to 20000 nM | 250 to 20000 nM |  | O=C1COc2ccc(CNC(=O)c3nc4[nH]ncc4c(=O)[nH]3)cc2N1 [39/13]
< 100 nM | 250 to 20000 nM | < 250 nM | CN(C)C(=O)Cc1csc2nc(C(=O)NCc3ccc4c(c3)NC(=O)CO4)[nH]c(=O)c12 [2/160]
< 100 nM | 250 to 20000 nM | < 250 nM | C[C@@H](NC(=O)c1ccccc1)c1ccc2nc(C(=O)NCc3ccc4c(c3)NC(=O)CO4)[nH]c(=O)c2c1 [29/1]
< 100 nM |  | 250 to 20000 nM | O=C1COc2ccc(CNC(=O)c3nc4ccc([N+](=O)[O-])cc4c(=O)[nH]3)cc2N1 [Example 2/57]
< 100 nM |  | < 250 nM | Cc1sc2nc(C(=O)NCc3ccc4c(c3)NC(=NO)CO4)[nH]c(=O)c2c1C [2/275]
< 100 nM | 250 to 20000 nM | < 250 nM | CC(C)(C)OC(=O)NCc1ccc2nc(C(=O)NCc3ccc4c(c3)NC(=O)CO4)[nH]c(=O)c2c1 [Example 14]
< 100 nM | 250 to 20000 nM | < 250 nM | Cc1sc2nc(C(=O)NCc3ccc4c(c3)NC(=O)CO4)[nH]c(=O)c2c1C(C)c1ccccc1 (stereo not shown) [2/373]
< 100 nM | < 250 nM |  | Nc1c(N2CCc3ccc(CNC(=O)c4nc5scc(-c6cnccn6)c5c(=O)[nH]4)cc3C2)c(=O)c1=O [2/186]
< 100 nM |  | < 250 nM | C#Cc1ccc2nc(C(=O)NCc3ccc4c(c3)NC(=O)CO4)[nH]c(=O)c2c1 [Example 8]
< 100 nM | < 250 nM | < 250 nM | COc1cccc2nc(C(=O)NCc3ccc4c(c3)NC(=O)CO4)[nH]c(=O)c12 [Example 35]
 | 250 to 20000 nM |  | O=C1COc2ccc(CNC(=O)c3nc4cccc(NCc5ccccc5)c4c(=O)[nH]3)cc2N1 [36/3]
< 100 nM |  | < 250 nM | O=C(Cc1csc2nc(C(=O)NCc3ccc4c(c3)NC(=O)CO4)[nH]c(=O)c12)NCc1ccc2c(c1)NC(=O)CO2 [2/149]
